In patent publication US5710274A, “N-aminoalkyldibenzofurancarboxamides; new dopamine receptor subtype specific ligands” (Neurogen Corporation, priority 1996, dated 1998):
pKi: −log10 of the molar value. Where a name gives a salt, the structure may show the parent alone.

Tests used:
D3 receptors = molecular target: T1, D3 receptors (Chlorocebus aethiops, UniProt P52703); assay: D3 receptor binding, displacement of 3H-YM 09151-2; design: species or system African Green monkey; details: recombinant receptors in COS cell pellets; 0.5 nM 3H-YM 09151-2; 48° C; pH 7.4
T1 construct: expressed in transfected cells; host or cells: COS cells
T1 sequence (P52703 whole entry): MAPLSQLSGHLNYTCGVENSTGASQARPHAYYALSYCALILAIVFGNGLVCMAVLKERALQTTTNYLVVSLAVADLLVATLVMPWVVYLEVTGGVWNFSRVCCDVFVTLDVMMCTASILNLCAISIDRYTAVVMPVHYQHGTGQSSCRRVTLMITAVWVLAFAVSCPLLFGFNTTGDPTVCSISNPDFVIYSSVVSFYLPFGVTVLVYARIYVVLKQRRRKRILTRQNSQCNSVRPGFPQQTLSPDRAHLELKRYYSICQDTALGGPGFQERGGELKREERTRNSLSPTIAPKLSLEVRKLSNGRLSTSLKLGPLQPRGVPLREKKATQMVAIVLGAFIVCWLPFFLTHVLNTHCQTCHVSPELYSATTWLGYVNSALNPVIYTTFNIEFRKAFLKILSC
Experimental: (§1) Pellets of COS cells containing recombinantly produced D2 or D3 receptors from African Green monkey were used for the assays. The sample is homogenized in 100 volumes (w/vol) of 0.05M Tris HCl buffer at 4° C. and pH 7.4. The sample is then centrifuged at 30,000×g and resuspended and rehomogenized. The sample is then centrifuged as described and the final tissue sample is frozen until use. The tissue is resuspended 1:20 (wt/vol) in 0.05M Tris HCl buffer containing 100 mM NaCl.
(§2) Incubations are carried out at 48° C. and contain 0.4 ml of tissue sample, 0.5 nM ^3 H-YM 09151-2 and the compound of interest in a total incubation of 1.0 ml. Nonspecific binding is defined as that binding found in the presence of […] spiperone; without further additions, nonspecific binding is less than 20% of total binding. The binding characteristics of representative compounds of the invention for D2 and D3 receptor subtypes are shown in Table 2 for rat striatal homogenates.

D2 receptors = molecular target: T2, D2 receptors (Chlorocebus aethiops, UniProt P52702); assay: D2 receptor binding, displacement of 3H-YM 09151-2; design: species or system African Green monkey; details: recombinant receptors in COS cell pellets; 0.5 nM 3H-YM 09151-2; 48° C; pH 7.4
T2 construct: expressed in transfected cells; host or cells: COS cells
T2 sequence (P52702 whole entry): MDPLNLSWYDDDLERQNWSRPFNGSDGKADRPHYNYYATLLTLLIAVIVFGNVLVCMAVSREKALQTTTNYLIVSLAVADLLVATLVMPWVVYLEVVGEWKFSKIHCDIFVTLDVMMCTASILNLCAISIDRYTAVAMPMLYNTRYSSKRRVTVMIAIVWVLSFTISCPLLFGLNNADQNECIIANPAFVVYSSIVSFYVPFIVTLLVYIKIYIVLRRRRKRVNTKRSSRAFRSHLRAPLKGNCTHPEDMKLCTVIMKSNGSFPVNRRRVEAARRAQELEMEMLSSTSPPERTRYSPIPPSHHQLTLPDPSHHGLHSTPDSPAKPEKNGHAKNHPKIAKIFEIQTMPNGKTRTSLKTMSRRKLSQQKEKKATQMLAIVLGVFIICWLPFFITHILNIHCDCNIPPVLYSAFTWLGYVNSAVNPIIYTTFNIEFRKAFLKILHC
Experimental: as §1, §2

pKi (D3 receptors) | pKi (D2 receptors) | Structure (SMILES)
8.89 | 6.70 | O=C(NCCCCN1CCN(c2cccc3ccccc23)CC1)c1ccc2oc3ccccc3c2c1 [Compound 2, N-(1-{4-[4-(1-Naphthyl)piperazin-1-yl]}butyl)-2-dibenzofurancarboxamide hydrochloride]
9.00 | 6.80 | O=C(NCCCCN1CCN(c2cccc(Cl)c2Cl)CC1)c1ccc2oc3ccccc3c2c1 [Compound 1, N-(1-{4-[4-(2,3-Dichlorophenyl)piperazin-1-yl]}butyl)-2-dibenzofurancarboxamide hydrochloride]
